Measured values as given in PubChem BioAssay (NCI).
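48-hour exposure; five concentrations; linearly interpolated endpoints. GI50: concentration for 50% inhibition of growth. TGI: total growth inhibition.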

Key:
Assay in all cases: NCI anticancer screen, dose series, 48 h
MDA-MB-231 breast = system: MDA-MB-231 breast
RXF 393 renal = system: RXF 393 renal
BT-549 breast = system: BT-549 breast
MCF7 breast = system: MCF7 breast
PC-3 prostate = system: PC-3 prostate
NCI/ADR-RES ovarian = system: NCI/ADR-RES ovarian
DU-145 prostate = system: DU-145 prostate
HS 578T breast = system: HS 578T breast
M19-MEL melanoma = system: M19-MEL melanoma
KM20L2 colon = system: KM20L2 colon
SNB-78 CNS = system: SNB-78 CNS
DMS 273 small cell lung = system: DMS 273 small cell lung

| Compound | TGI (MDA-MB-231 breast) | TGI (RXF 393 renal) | TGI (BT-549 breast) | TGI (MCF7 breast) | TGI (PC-3 prostate) | TGI (NCI/ADR-RES ovarian) | TGI (DU-145 prostate) | TGI (HS 578T breast) | GI50 (MDA-MB-231 breast) | GI50 (RXF 393 renal) | GI50 (BT-549 breast) | GI50 (MCF7 breast) | GI50 (PC-3 prostate) | GI50 (NCI/ADR-RES ovarian) | GI50 (DU-145 prostate) | GI50 (HS 578T breast) | TGI (M19-MEL melanoma) | TGI (KM20L2 colon) | TGI (SNB-78 CNS) | TGI (DMS 273 small cell lung) |
| --- | --- | --- | --- | --- | --- | --- | --- | --- | --- | --- | --- | --- | --- | --- | --- | --- | --- | --- | --- | --- |
| Cc1ncc(CO)c(C=NCCCCCCN=Cc2c(CO)cnc(C)c2O)c1O | > 100 µM | > 100 µM | > 100 µM | > 100 µM | > 100 µM | > 100 µM | > 100 µM | > 100 µM |  |  |  |  |  |  |  |  |  |  |  |  |
| Cc1ccc(S(=O)(=O)Nc2cc(Sc3ccccc3)c(O)c3ccccc23)cc1 | 6.16 µM | 9.38 µM | 24.2 µM | 4.79 µM | 9.29 µM | 9.31 µM | 13.6 µM | 10.8 µM | 2.43 µM | 3.11 µM | 11.9 µM | 1.95 µM | 2.2 µM | 3 µM | 3.83 µM | 3.27 µM |  |  |  |  |
| COc1cc(Cc2ccc3c(c2C#N)N(C)c2ccccc2S3)cc(OC)c1OC |  | > 100 µM |  |  |  |  |  |  |  |  |  |  |  |  |  |  | > 100 µM | > 100 µM | > 100 µM | > 100 µM |
| COc1cc(C2S/C(=C/c3ccccc3)C(=O)N2c2ccccc2Cl)cc(OC)c1OC (centres undefined) | 67.3 µM | 45.1 µM | > 100 µM | > 100 µM | 58.2 µM | 94.7 µM |  | 47.5 µM |  |  |  |  |  |  |  |  |  |  |  |  |
| CN(CCO)/N=N/c1nc[nH]c1C(N)=O |  | > 100 µM |  |  |  |  |  |  |  |  |  |  |  |  |  |  | > 100 µM | > 100 µM | > 100 µM | > 100 µM |
| C/C(=N\NC(=S)Nc1ccc(Cl)cc1)c1nc2ncccc2[nH]1 | > 100 µM |  | 11.1 µM | 11.2 µM | 17.4 µM | 53.4 µM | 14.1 µM | 71.8 µM |  |  |  |  |  |  |  |  |  |  |  |  |
| O=c1oc2c(ccc3c(O)cccc32)c2c1CCCC2 | 47.1 µM | 39.8 µM | 73.6 µM | > 100 µM | > 100 µM | > 100 µM | > 100 µM | > 100 µM |  |  |  |  |  |  |  |  |  |  |  |  |
| BrC1=CN2C[n+]3cc(Br)c4ccccc4c3N=C2c2ccccc21 | 34.6 µM |  | 37.2 µM | 21.5 µM | 33.9 µM | > 100 µM | 33.3 µM | 61 µM |  |  |  |  |  |  |  |  |  |  |  |  |
| CCOC(=O)/C(=N/Nc1ccc(Cl)cc1)N1C(=S)C=C(C)NN(C)C1=S | > 100 µM | 41.1 µM |  | > 100 µM |  | > 100 µM | > 100 µM | > 100 µM |  |  |  |  |  |  |  |  |  |  |  |  |
| COc1cc2nc(N3CCC[C@@H](NC4=CC(=O)c5ccccc5C4=O)C3)nc(N)c2cc1OC | 3.26 µM |  | 4.66 µM | 3.39 µM | 4.16 µM |  | 3.78 µM | 4.95 µM | 1.69 µM |  | 2.1 µM | 1.71 µM | 1.91 µM |  | 2.03 µM | 2.14 µM |  |  |  |  |
| NC(=S)N/N=C/c1ccc(OC(=O)COc2ccccc2Cl)cn1 |  | > 100 µM |  | > 100 µM |  | 59.3 µM |  |  |  |  |  |  |  |  |  |  | > 92.2 µM | > 100 µM | > 100 µM | > 71.6 µM |
| CCOC(=O)C(=O)Nc1cccc(C)c1C |  |  |  |  |  |  |  |  |  |  |  |  |  |  |  |  | > 100 µM | > 100 µM | > 100 µM | > 100 µM |
| C/C([O-])=C(/c1nc(-c2ccc([N+](=O)[O-])o2)no1)[n+]1cc(C)ccc1C |  | 43.2 µM |  | 16.2 µM |  | > 100 µM |  |  |  |  |  |  |  |  |  |  | 17.6 µM | 27.5 µM | > 100 µM | 26.1 µM |
| COC(=O)C1=C(O)C(C(=O)OC)[C@@]2(O)[C@@H](C(=O)OC)CC[C@@H]1[C@@H]2C(=O)OC (some centres undefined) | 83.5 µM | 61.2 µM | > 100 µM | > 100 µM |  |  | > 100 µM | 33.9 µM |  |  |  |  |  |  |  |  |  |  |  |  |
| O=C(O)CN=c1c2ccccc2n(O)c2ccccc12 |  |  |  |  |  |  |  |  |  |  |  |  |  |  |  |  | > 100 µM | > 100 µM | > 100 µM | > 100 µM |
